In US20140335210A1, “METHOD AND AGROCHEMICAL COMPOSITION FOR USING LARCH WOOD EXTRACTS IN AGRICULTURE” (FLAVITPURE, INC., priority 2013, published 2014):
Where two headings read alike, the source gives them in different places.

Tests used:
P. expansum [1] = details: in vitro, agarized apple juice medium; cited from earlier work
white potato tissue = details: biphasic, dose dependent; cited from earlier work
Fusarium = details: about 0.60 to 0.70 mg per 100 g dry weight accumulated in the testa of ant18 mutants
[2] = test system: polar transport of indol-3yl-acetic acid; details: 4-6 h; stimulation of basipetal, inhibition of acropetal transport; cited from earlier work
cress seedlings = details: biphasic, dose dependent; cited from earlier work
[3] = test system: cyp705a5 mutant phenotype; details: 15 μM in the growth medium; cited from earlier work
[4] = test system: dihydrotlavonol 4-reductase (DFR); details: grape cell cultures, addition of compound; cited from earlier work
cut seed potatoes = details: cited from earlier work
[5] = test system: Barley (Hordeumvulgare L.) seeds; details: cited from earlier work
[6] = test system: vacuolar membrane (H+-ATPase and H+-pyrophosphatase), slow vacuolar (SV) channel; details: cited from earlier work
P. expansum [7] = test system: P. expansum; parameters: reduction of lesion diameters: concentration or dose not given beside the values; details: cited from earlier work; for reduction of lesion diameters: apples Golden Delicious, 16° C. in the dark; for patulin accumulation in apples: in vivo, lesions analyzed by HPLC after 14 days
[8] = low-grade seeds soaked in aqueous 10^-4 M

Row | SMILES | fungal growth (P. expansum [1]) | reduction of patulin accumulation (P. expansum [1]) | polarity of the transport of indol-3yl-acetic acid [2] | reduction of lesion diameters (P. expansum [7]; after 6 days of incubation) | reduction of lesion diameters (P. expansum [7]; after 10 days of incubation) | reduction of lesion diameters (P. expansum [7]; after 14 days of incubation) | patulin accumulation in apples (P. expansum [7]) | further results
1 | O=C1c2c(O)cc(O)cc2OC(c2ccc(O)c(O)c2)C1O (stereo not drawn) [Dihydroquercetin (taxifolin)] | no inhibition | 48% | increased | 97% | 71% | 27% | no reduction | oxygen consumption of white potato tissue (white potato tissue): stimulated; resistance of seeds to Fusarium infection (Fusarium): extraordinary resistance; root growth of cress seedlings (cress seedlings): increased; phenotype restored, of the wild type gravity response [3]: ≥ 100%; increase in dihydrotlavonol 4-reductase (DFR) activity [4]: 10 fold; fungal mold growth on treated seed pieces (cut seed potatoes; incubated in a controlled environment): adequately retarded; thickness of the suberized layer formed below the cut surface (cut seed potatoes; treated seed potato tissue): increases; activity of ascorbate peroxidase (AsP) ([5]; (+DHQ)-plants): increased more significantly; ratio between TBARs content and AsP activity ([5]; leaves, optimal soil conditions and flooding): lower; germination rate in comparison with the same seeds soaked in water [5, 8]: twofold; mold on seeds [5, 8]: no mold; root growth ([5]; seedlings from pretreated seeds vs non-pretreated): higher; shoot growth ([5]; seedlings from similarly germinated seeds, with vs without pretreatment): did not differ; TBARs content ([5]; soil flooding, roots and leaves, (+DHQ) vs (-DHQ) seedlings): lower; active and passive transport systems of the vacuolar membrane [6]: affected; effect on the membranes of isolated vacuoles ([6]; isolated vacuoles): strong stabilizing effect
2 | COc1cc(/C=C/C(=O)O)ccc1O [ferulic acid] |  |  | increased |  |  |  |  | 
3 | C[C@@H]1O[C@@H](O[C@H]2[C@H](Oc3cc(O)c4c(c3)O[C@H](c3ccc(O)cc3)CC4=O)O[C@H](CO)[C@@H](O)[C@@H]2O)[C@H](O)[C@H](O)[C@H]1O [naringin] |  |  | increased |  |  |  |  | 
4 | O=C1/C(=C/c2ccc(O)c(O)c2)Oc2cc(O)ccc21 [sulfuretin] |  |  | increased |  |  |  |  | 
5 | O=c1ccc2ccc(O)cc2o1 [umbelliferone, reference compound] | no inhibition | 53% |  | 100% | 68% | 38% | no reduction | 
6 | O=c1c(O)c(-c2ccc(O)cc2O)oc2cc(O)cc(O)c12 [morin] |  |  | increased |  |  |  |  | 
